The source of these data is patent US20090104235A1, “Method for Producing of a Preparation of a Solid Dmso-Containing Silicone Oil Emulsion for the Binding of Reactive Oxygen Compounds in Human and Animal Bodies” (priority 2005, published 2009).

Data set [1] can be described thus: Case report: morbus Bechterev patient with chronic pain, daily suppository application. The class given is in vivo, human. The text has this: […]: morbus Bechterev for over 10 years. Treatment of chronic pain with Celebrex.
The nature of data set [2]: DMSO application quantity needed for the same effect; comparison with pure DMSO. Type of data set: in vivo, human. The note with it: dose of pure DMSO, without silicone emulsion. The protocol:
With standard preparations for the treatment of chronic diseases among humans, DMSO can be prescribed in a dose of up to 1 g/kg of body weight. A toxic effect only occurs among humans when over 1 g/kg DMSO is supplied (N. M. Luerry et al. Drug. Intell. Clin. Pharm. 18, 591 [1984]). Due to the silicone emulsion according to the invention, the same effect is achieved among humans with an application quantity of DMSO of 1 mg/kg of body weight. With the silicone emulsion according to the invention, the quantity of DMSO to be applied is therefore reduced to 1/1000th of the application quantity used to date.

The conditions of data set [3]: among humans; N. M. Luerry et al. 1984; cited from earlier work.

In the case of `Cc1ccc(-c2cc(C(F)(F)F)nn2-c2ccc(S(N)(=O)=O)cc2)cc1` [Celebrex], in data set [1] (morbus Bechterev patient), the side effects result is on record as “clearly cause difficulty to the patient”. Moreover, the “influence on disease progression” value in data set [1] (treatment of chronic pain, morbus Bechterev for over 10 years) was “can also not be significantly influenced”.
As to `C[S+](C)[O-]` [DMSO, dimethylsulphoxide], the “pain-relieving and inflammation-restricting effect” value in data set [2] was “does not lead to the high pain-relieving and inflammation-restricting effect”. Moreover, the “dose at which a toxic effect occurs” value in data set [3] is listed as “over 1 g/kg”.
